Measurements as given in patent publication US6548543B1, “Remedies or preventives containing cyclopentenone compounds as the active ingredient” (Takara Shuzo Co., Ltd., priority 1998, dated 2003).

Key:
[1] = test system: spleen lymphocytes stimulated with Ehrlich ascites carcinoma cells; test: Cancer cell-specific proliferation of spleen lymphocytes from treated tumor-bearing mice; format: in vivo, ddY mice; settings: for Growth of spleen lymphocytes on stimulation with cancer cells (statement): mice administered intraperitoneally
Protocol: ddY mice (female, 7 weeks old) were purchased from Japan SLC and pre-bred 1 week before using in experiments.
1×10^6 Ehrlich ascites carcinoma cells were intraperitoneally inoculated to each mouse. 10 mg/kg of cyclopentene, 30 mg/kg of GM or 10 mg/kg of dipropionylcyclopentene was intraperitoneally administered to the mouse on the day after the inoculation. Saline was administered to a control mouse.
(§1) A spleen was taken out from the mouse 10 days after the inoculation with cancer cells, finely minced and suspended in RPMI-1640 medium (Gibco) containing 10% FCS (HyClone) to obtain a single cell suspension. Adhesive cells in the cell suspension adhered to a plastic Petri dish were removed and non-adhesive cells were used as spleen lymphocytes.
The spleen lymphocytes were suspended in RPMI-1640 medium containing 10% FCS at a concentration of 2×10^6/ml. 100 μl/well of the suspension was seeded into a microtiter plate.
Stimulated cells were prepared as follows. Mitomycin C (Kyowa Hakko Kogyo) was added to a concentration of 50 μg/ml to Ehrlich ascites carcinoma cells suspended in RPMI-1640 medium at a concentration of 2×10^6 cells/ml. The cells were treated at 37° C. for 30 minutes, washed twice and then suspended in RPMI-1640 medium containing 10% FCS to prepare stimulated cells at a concentration of 2×10^6 cells/ml. 100 μl of the thus prepared stimulated cells was overlaid onto each well of the plate into which 100 μl/well of the spleen lymphocytes had been added. The plate was incubated at 37° C. for 5 days in a 5% CO2 incubator. 37 kBq of ^3H-thymidine (Daiichi Pure Chemicals) was added to the well to pulse-label the cells on the day before the completion of the cultivation. After cultivation, the cells were harvested on a glass filter to measure the radioactivity.

NK cells = format: in vivo, ddY mice; settings: mice administered intraperitoneally
Protocol: ddY mice (female, 7 weeks old) were purchased from Japan SLC and pre-bred for 1 week before using in experiments.
1×10^6 Ehrlich ascites carcinoma cells were intraperitoneally inoculated to each mouse. 10 mg/kg of cyclopentenone, 30 mg/kg of GM or 10 mg/kg of dipropionylcyclopentenone was intraperitoneally administered to the mouse on the day after the inoculation. Saline was administered to a control mouse.
as §1, with “medium” for “medium (Gibco)”, “cells” for “cells in the cell suspension”, “removed from the cell suspension” for “removed”, “NK cells.” for “spleen lymphocytes.”
The NK cells were suspended in RPMI-1640 medium containing 10% FCS at a concentration of 6×10^6/ml. 100 μl/well of the suspension was seeded into a microtiter plate.
Target cells were prepared as follows. 3700 kBq of ^51Cr (Amersham) was added to 1×10^6 YAC-1 cells (Dainippon Pharmaceutical). The cells were cultured at 37° C. for 1 hour for labeling. The labeled cells were washed twice and then suspended in RPMI-1640 medium containing 10% FCS at a concentration of 2×10^5 cells/ml. […] The radioactivity (experimental value) was measured using an auto gamma counter.
100 μl of the culture medium was added to the reaction system in place of the NK cells and the radioactivity was measured in order to measure the radioactivity spontaneously released from the target cells (control value).
Furthermore, the radioactivity released into the supernatant when 1% Triton (Nacalai Tesque) was added to the reaction system to lyse the 51Cr-labeled YAC-1 cells was measured in order to measure the total radioactivity contained in the reaction system (total radioactivity value).
The cytotoxicity (%) specifically mediated by the NK cells can be determined according to the following equation.
Cytotoxicity (%)=[(experimental value−control value)/(total radioactivity value−control value)]×100

[2] = test system: adhesion between vascular endothelial cells and HL-60 cells; test: Adhesion of HL-60 cells to TNF-α-stimulated vascular endothelial cells; format: cell-based, Human; settings: for Adhesion rate: TNF-α-stimulated endothelial cells; for Suppression of TNF-α-induced increase in adhesion rate (statement): 10^−7 to 10^−4 M, dose-dependent
Protocol: Human vascular endothelial cells (sold by Sanko Junyaku) suspended in RPMI-1640 medium (Gibco) containing 10% FCS (HyClone) at a concentration of 1×10^5 cells/ml. 100 μl/well of the suspension was seeded into a 96-well microtiter plate.
100 U/ml of human recombinant TNF-α (Promega) was added to monolayer of vascular endothelial cells after incubation at 37° C. for 2 days in a 5% CO2 incubator. The plate was incubated 37° C. for 6 hours in a 5% CO2 incubator to prepare vascular endothelial cells stimulated with TNF-α.
On the other hand, cyclopentenone, GM or dipropionylcyclopentenone at a varying concentration was added to HL-60 cells suspended in RPMI-1640 medium containing 10% FCS at a concentration of 1×10^6 cells/ml. The cells were cultured at 37° C. for 3 hours in a 5% CO2 incubator. After cultivation, 5 μM of 5(-and-6)-carboxyfluorescein diacetate, succinimide ester (Molecular Probe) as a fluorescent agent was added thereto and reacted at 37° C. for 10 minutes. The cells were washed twice with RPMI-1640 medium and suspended in RPMI-1640 medium containing 10% FCS to prepare a suspension of fluorescence-labeled HL-60 cells at a concentration of 1×10^6 cells/ml.
100 μl/well of the fluorescence-labeled HL-60 cells were overlaid onto the vascular endothelial cells stimulated with TNF-α. Cyclopentenone, GM or dipropionylcyclopentenone at a varying concentration was added thereto. The plate was incubated at 37° C. for 20 minutes in a 5% CO2 incubator for adhesion reaction between vascular endothelial cells and HL-60 cells.
After the adhesion reaction, the plate was washed to remove non-adhesive cells. 1% Triton X (Nacalai Tesque) was added thereto to destroy adhesive cells. The fluorescence intensity was measured using filters for 485/22 nm (excitation) and 530/25 nm (emission).
The adhesion rate which represents the ratio of cells adhered to vascular endothelial cells was determined defining the fluorescence intensity for 1×10^5 fluorescence-labeled cells as 100%.

topoisomerase II = target: T1, topoisomerase II (Homo sapiens, UniProt P11388); test: Topoisomerase II inhibition, pBR322 DNA relaxation; format: biochemical; settings: 37° C., 30 minutes
T1 construct: purchased TopoGEN
Protocol: (1) 2 μl of topoisomerase II (TopoGEN; 2 units/μl), 2 μl of 10-fold concentrated buffer [0.5 M Tris-HCl (pH 8.0), 1.2 M KCl, 0.1 M MgCl2, 2.5 mM adenosine triphosphate, 5 mM dithiothreitol], 2 μl of 0.1% bovine serum albumin (Takara Shuzo), 11 μl of distilled water and 2 μl of distilled water (control) or 2 μl of one of aqueous solutions of dipropionylcyclopentenone, diisobutyrylcyclopentenone, dibenzoylcyclopentenone, dihexanoylcyclopentenone, di-2-hexenoylcyclopentenone, dimethoxyacetylcyclopentenone, dimethylfumarylcyclopentenone or dimethylmaleylcyclopentenone at varying concentrations were mixed together. 1 μl of 0.25 μg/μl pBR322 DNA (Takara Shuzo) was added thereto. The resulting mixture was reacted at 37° C. After reacting for 30 minutes, 2 μl of an aqueous solution containing 1% sodium dodecyl sulfate, 50% glycerol and 0.02% Bromophenol Blue was added thereto to stop the reaction.
20 μl of the reaction mixture was applied to 1% agarose gel prepared using agarose L03 (Takara Shuzo) and TAE buffer [40 mM Tris, 5 mM sodium acetate, 1 mm ethylenediaminetetraacetic acid disodium salt (EDTA); adjusted to pH 7.8 using acetic acid] and electrophoresed in TAE buffer. After electrophoresis, the gel was soaked in a 1 μg/ml aqueous ethidium bromide solution. The gel was exposed to ultraviolet rays to visualize the electophoretic pattern of DNA.

[3] = test system: HL-60 (ATCC CCL-240) cells; test: Viability and apoptosis of HL-60 cells (Trypan Blue, optical microscope); format: cell-based; settings: Homo sapiens, 24 hours, Trypan Blue, read-out: Viability50 (concentration that results in a viability of 50%)
Protocol: HL-60 (ATCC CCL-240) cells were cultured at 37° C. in RPMI 1640 medium (Bio Whittaker) containing 10% fetal calf serum (FCS; JRH) which had been treated at 56° C. for 30 minutes and suspended in RPMI 1640 medium at a concentration of 2.5×10^5 cells/5 ml.
10 μl each of solutions of diisobutyrylcyclopentenone, dimethoxyacetylcyclopentenone, dimethylfumarylcyclopentenone or dimethylmaleylcyclopentenone in 70% ethanol in water diluted to varying concentrations was added to 5 ml of the suspension. The mixtures were incubated at 37° C. for 24 hours in the presence of 5% Co2. 10 μl of aqueous actinomycin D (Sigma) solution (0.5 mg/ml), which is known as a reagent that induces apoptosis, was used in place of the sample and the mixture was incubated under the same conditions for confirmation.
The cultured cells were examined under an optical microscope.
Furthermore, a portion of the cells cultured as described above was stained with 0.4% Trypan Blue and examined under an optical microscope. The number of viable cells which were not stained and the number of dead cells which were stained blue were counted. The concentration of each of the samples that results in a viability of 50% (Viability50 μM) was determined.

T1 sequence (P11388 whole entry): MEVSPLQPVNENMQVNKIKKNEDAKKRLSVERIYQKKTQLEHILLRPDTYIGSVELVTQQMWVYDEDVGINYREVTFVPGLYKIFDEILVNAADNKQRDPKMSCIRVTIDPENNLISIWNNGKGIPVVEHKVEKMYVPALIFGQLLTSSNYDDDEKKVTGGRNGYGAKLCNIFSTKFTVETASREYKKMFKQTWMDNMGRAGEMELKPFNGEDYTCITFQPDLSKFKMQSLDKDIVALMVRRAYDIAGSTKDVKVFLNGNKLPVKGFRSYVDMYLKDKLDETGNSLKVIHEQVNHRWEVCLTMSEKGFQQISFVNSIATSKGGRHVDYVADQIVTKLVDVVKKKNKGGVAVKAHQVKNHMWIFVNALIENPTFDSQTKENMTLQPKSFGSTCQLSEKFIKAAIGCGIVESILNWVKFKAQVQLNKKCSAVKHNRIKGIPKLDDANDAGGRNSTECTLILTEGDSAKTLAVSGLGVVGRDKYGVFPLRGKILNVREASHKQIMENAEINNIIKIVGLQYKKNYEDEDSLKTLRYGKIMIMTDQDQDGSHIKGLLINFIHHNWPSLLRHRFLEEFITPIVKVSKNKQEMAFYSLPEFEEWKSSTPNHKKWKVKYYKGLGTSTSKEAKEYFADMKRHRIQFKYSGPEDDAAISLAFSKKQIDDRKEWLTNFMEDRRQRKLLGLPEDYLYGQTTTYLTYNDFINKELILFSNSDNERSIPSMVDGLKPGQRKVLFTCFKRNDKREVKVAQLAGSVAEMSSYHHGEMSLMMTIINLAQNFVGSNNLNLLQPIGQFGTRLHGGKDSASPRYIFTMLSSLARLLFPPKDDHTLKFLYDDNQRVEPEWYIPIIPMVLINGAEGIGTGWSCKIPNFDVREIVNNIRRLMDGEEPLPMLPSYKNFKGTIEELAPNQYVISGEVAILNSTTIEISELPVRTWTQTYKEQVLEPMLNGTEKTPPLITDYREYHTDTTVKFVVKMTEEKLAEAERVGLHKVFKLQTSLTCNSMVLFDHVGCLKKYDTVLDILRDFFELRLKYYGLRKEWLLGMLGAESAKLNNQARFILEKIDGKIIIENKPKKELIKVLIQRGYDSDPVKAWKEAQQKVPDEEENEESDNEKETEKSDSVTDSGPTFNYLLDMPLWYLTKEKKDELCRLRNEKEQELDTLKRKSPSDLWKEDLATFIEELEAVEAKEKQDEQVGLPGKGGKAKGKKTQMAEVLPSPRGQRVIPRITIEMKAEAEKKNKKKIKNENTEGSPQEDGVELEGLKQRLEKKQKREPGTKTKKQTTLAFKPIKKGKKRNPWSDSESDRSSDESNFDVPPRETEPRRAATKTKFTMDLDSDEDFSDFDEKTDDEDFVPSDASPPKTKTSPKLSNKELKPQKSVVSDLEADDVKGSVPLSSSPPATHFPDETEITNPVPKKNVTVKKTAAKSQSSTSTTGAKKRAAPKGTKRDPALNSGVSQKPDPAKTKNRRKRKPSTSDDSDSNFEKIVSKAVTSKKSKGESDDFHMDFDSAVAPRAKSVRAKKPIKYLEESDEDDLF

Question: Which 3H-thymidine uptake ([1]; 10 mg/kg intraperitoneal, no stimulation with cancer cell) does the source give for `O=C1C=CC(O)C1O` (centres unmarked) [Cyclopentenone, 4,5-dihydroxy-2-cyclopenten-1-one] here?
Answer: 9680 CPM

Question: And the 3H-thymidine uptake ([1]; 10 mg/kg intraperitoneal, stimulation with cancer cell)?
Answer: 25756 CPM

Question: And the “Growth of spleen lymphocytes on stimulation with cancer cells (statement)” value [1]?
Answer: significantly enhanced

Question: And the “Activation of NK cells (statement)” value (NK cells)?
Answer: Activation of NK cells was observed

Question: What about the Adhesion rate ([2]; 0.1 μM) of the same compound?
Answer: 51.7%

Question: And the Adhesion rate ([2]; 1 μM)?
Answer: 46.0%

Question: And the Adhesion rate ([2]; 10 μM)?
Answer: 22.2%

Question: What about the Adhesion rate ([2]; 100 μM) of the same compound?
Answer: 17.9%

Question: What about the “Suppression of TNF-α-induced increase in adhesion rate (statement)” value [2] of the same compound?
Answer: suppressed

Question: For `COC(=O)/C=C\C(=O)OC1C=CC(=O)C1OC(=O)CCC(=O)OC` (centres unmarked) [Dimethylmaleylcyclopentenone, dimethylmaleylcyclopentenone], which “Concentration at which change of DNA from superhelical type to relaxed type was partially or completely inhibited” value (topoisomerase II) is on record?
Answer: ≥ 5 µM

Question: And the IC50 [3]?
Answer: 3.4 µM

Question: For `N[C@@H](CCC(=O)N[C@@H](CSC1C=C(O)C(=O)C1)C(=O)NCC(=O)O)C(=O)O` (some centres unmarked) [GM, 2-hydroxy-4-glutathion-S-yl-2-cyclopenten-1-one], which 3H-thymidine uptake ([1]; 30 mg/kg intraperitoneal, no stimulation with cancer cell) is on record?
Answer: 8700 CPM

Question: What about the 3H-thymidine uptake ([1]; 30 mg/kg intraperitoneal, stimulation with cancer cell) of the same compound?
Answer: 36291 CPM

Question: What about the “Growth of spleen lymphocytes on stimulation with cancer cells (statement)” value [1] of the same compound?
Answer: significantly enhanced

Question: What about the “Activation of NK cells (statement)” value (NK cells) of the same compound?
Answer: Activation of NK cells was observed

Question: And the Adhesion rate ([2]; 0.1 μM)?
Answer: 53.9%

Question: And the Adhesion rate ([2]; 1 μM)?
Answer: 48.3%

Question: What about the Adhesion rate ([2]; 10 μM) of the same compound?
Answer: 23.9%

Question: And the Adhesion rate ([2]; 100 μM)?
Answer: 16.3%

Question: What about the “Suppression of TNF-α-induced increase in adhesion rate (statement)” value [2] of the same compound?
Answer: suppressed
